Test [1] relates to EGFP-MAPK14 fusion protein. The test is described as follows: EGFP-MAPK14 fusion protein translocation assay for activation of MAPK14 (N:C ratio) in stable SW1353 cells. In kind it is cell-based, human. The procedure:
During assay preparation and throughout the assay, background stress response was kept to a minimum; microplates, cells and solutions were maintained at 37° C., 5% CO2, and 95% relative humidity. All inhibitors and activators were added to cells in complete medium.
50 μl of the prepared test activator in complete medium and control compounds were added and incubated at 37° C., 5% CO2, and 95% relative humidity. For fixed cell assays, 150 μl 10% (v/v) formalin (4% formaldehyde) was added at room temperature for 20 min. Cells were washed twice with PBS and nuclei were stained with Hoechst (10 μM) in PBS prior to imaging.

Test [2] relates to phospho-(Thr180/Tyr182)-p38(MAPK14). Description: Anti-phospho-p38 immunofluorescence assay in SW1353 cells. Particulars: 30 min treatment, fixed; n=8; read-out: EC50, immunofluorescence assay (Alexa647-anti-phospho-p38 signal). In kind it is cell-based, human. The procedure: The temporal and biological response of the EGFP-MAPK14 assay was validated through co-analysis with a recognised assay for p38 (MAPK14) activation—an immunofluorescence assay targeting phospho-(Thr180/Tyr182)-p38(MAPK14). […] Cells were then washed (1% goat serum, 0.1% Tween in PBS), permeabilized (0.5% Triton X in wash buffer) for 15 minutes at room temperature and washed again. 50 μl of rabbit anti-phospho-p38 antibody at 1:200 (Zymed Laboratories, San Francisco, USA) was added and incubated for 1 hr at room temperature prior to two washes and the addition of 50 μl of goat-anti rabbit Alexa647 antibody (Molecular Probes) at 1:200 and incubation for 1 hr at room temperature. After 2 washes, cells were imaged in PBS to detect Hoechst, EGFP-MAPK14 and Alexa647 on an IN Cell Analyzer 1000 instrument.

Consider `COc1ccc(C[C@H]2NC[C@H](O)[C@H]2OC(C)=O)cc1` [anisomycin], for which the “Nuclear accumulation of EGFP-MAPK14 fusion protein” value in test [1] (live cells, 300 nM for 15 mins) was “clearly demonstrate significant nuclear accumulation”.
With `OC[C@@H](O)[C@@H](O)[C@H](O)[C@@H](O)CO` [sorbitol], the “Duration of stimulation after initial exposure” value in test [1] (live cells, 0.4 M) is given as “at least 90 minutes”. Moreover, in test [1] (live cells, 0.4 M for 15 mins), the “Nuclear accumulation of EGFP-MAPK14 fusion protein” value was “clearly demonstrate nuclear accumulation”.
For IL-1β, the EC50 in test [2] was determined as 7.82 pM. In test [1] (concentration used as activator in the inhibitor assay), the EC80 worked out at 12 pM. In addition, the “Translocation of EGFP-MAPK14 signal from cytoplasm to nucleus” value in test [1] (fixed cell assay, 316 pM for 30 minutes (FIG. 19)) is “clear translocation”; in test [1] (living cells, 12 pM) it was “clear translocation”.
